{"source": "paper PMC3790769", "about": "“Ansamitocin P3 Depolymerizes Microtubules and Induces Apoptosis by Binding to Tubulin at the Vinblastine Site” (PLoS ONE, 2013)", "biological_target": "T1, tubulin", "T1 construct": "tubulin isolated from goat brain (alpha-beta dimer); with alpha-tubulin/beta-tubulin heterodimer", "assay": "intrinsic tryptophan fluorescence quenching of purified tubulin; supported by reduced DTNB cysteine modification", "type": "binding, Capra hircus", "data": [{"smiles": "COc1cc2cc(c1Cl)N(C)C(=O)C[C@H](OC(=O)C(C)C)[C@]1(C)O[C@H]1[C@H](C)[C@@H]1C[C@@](O)(NC(=O)O1)[C@H](OC)/C=C/C=C(\\C)C2", "note": "[Ansamitocin P3]", "values": [{"measurement": "Kd", "result": "1300 ± 700", "unit": "nM"}]}]}
